Reference: paper PMC3101112 (Cancer Management and Research, 2011)

Columns and labels:
[1] = target: EPHA8 (Homo sapiens, UniProt P29322); assay: Biochemical inhibition profile, EPHA8
[2] = tested on: RAF; assay: Biochemical inhibition profile, RAF; design: species or system Human; settings: read-out: Biochemical Inhibition Profile IC50, RAF
[3] = target: p70S6K (Homo sapiens, UniProt P23443); assay: Biochemical inhibition profile, p70S6K; settings: read-out: p70S6K percent inhibition at 20 μM
[4] = tested on: pERK T202Y204 in HUVEC; assay: Cell-based target inhibition assay, HUVEC, VEGF, pERK; design: species or system human; settings: Homo sapiens, read-out: Cell-Based Target Inhibition Assays IC50, pERK T202Y204
[5] = tested on: MV4-11; assay: cells; type: cell-based; settings: Homo sapiens, MV4-11, read-out: Cell-Based Antiproliferation Assay IC50
[6] = tested on: pFLT3; settings: Western blotting; 200 mg; 10/13 patients; cited from earlier work
[7] = tested on: pERK T202Y204 in HUVEC (with BSA); assay: Cell-based target inhibition assay, HUVEC, VEGF, pERK with BSA; design: species or system human; settings: Homo sapiens, read-out: Cell-Based Target Inhibition Assays IC50, pERK T202Y204 (with BSA)

Sequence of p70S6K (P23443 whole entry): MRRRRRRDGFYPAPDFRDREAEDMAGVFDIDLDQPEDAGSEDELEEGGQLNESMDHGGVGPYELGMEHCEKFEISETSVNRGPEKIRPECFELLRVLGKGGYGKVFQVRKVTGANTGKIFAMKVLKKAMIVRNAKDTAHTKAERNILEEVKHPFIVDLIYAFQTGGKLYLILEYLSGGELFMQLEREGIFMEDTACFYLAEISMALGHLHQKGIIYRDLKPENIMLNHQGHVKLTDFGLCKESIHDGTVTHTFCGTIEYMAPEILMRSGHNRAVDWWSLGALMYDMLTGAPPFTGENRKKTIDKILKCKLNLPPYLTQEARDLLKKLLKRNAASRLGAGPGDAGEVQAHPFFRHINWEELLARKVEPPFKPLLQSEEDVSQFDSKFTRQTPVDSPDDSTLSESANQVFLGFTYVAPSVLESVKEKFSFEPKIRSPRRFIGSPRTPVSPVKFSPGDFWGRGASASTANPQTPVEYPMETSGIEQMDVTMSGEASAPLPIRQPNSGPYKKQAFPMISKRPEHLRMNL
Sequence of EPHA8 (P29322 28-1005): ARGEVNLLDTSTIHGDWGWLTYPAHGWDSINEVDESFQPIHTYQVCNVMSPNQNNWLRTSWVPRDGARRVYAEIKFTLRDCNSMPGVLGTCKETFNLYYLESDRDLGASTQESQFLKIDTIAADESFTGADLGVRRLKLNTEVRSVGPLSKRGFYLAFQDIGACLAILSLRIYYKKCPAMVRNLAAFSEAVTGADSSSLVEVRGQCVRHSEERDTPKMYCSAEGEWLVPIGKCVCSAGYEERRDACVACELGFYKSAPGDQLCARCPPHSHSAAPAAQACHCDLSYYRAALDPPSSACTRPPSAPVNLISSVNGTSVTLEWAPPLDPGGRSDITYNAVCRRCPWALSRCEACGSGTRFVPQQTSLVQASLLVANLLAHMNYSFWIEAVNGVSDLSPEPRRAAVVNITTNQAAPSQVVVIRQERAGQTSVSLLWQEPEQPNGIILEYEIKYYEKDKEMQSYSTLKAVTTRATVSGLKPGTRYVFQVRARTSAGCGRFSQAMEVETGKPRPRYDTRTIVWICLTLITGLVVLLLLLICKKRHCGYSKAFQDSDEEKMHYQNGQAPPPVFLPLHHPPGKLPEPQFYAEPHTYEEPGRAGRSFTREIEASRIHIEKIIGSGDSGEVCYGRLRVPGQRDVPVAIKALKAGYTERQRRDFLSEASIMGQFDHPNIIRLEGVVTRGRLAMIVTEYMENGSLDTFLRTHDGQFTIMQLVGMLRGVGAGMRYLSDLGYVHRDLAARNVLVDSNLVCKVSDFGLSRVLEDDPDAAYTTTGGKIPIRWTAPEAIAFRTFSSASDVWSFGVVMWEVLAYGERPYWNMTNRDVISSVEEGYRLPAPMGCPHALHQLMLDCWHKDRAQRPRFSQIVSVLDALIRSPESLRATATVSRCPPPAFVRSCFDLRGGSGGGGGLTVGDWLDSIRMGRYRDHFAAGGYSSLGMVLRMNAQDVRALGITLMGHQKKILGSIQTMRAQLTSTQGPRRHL

| Structure (SMILES) | IC50 [1] [nM] | IC50 [2] [nM] | inhibition at 20 µM [3] [%] | IC50 [4] [nM] | IC50 [5] [nM] | Patients with reduction of pFLT3 [6] [%] | IC50 [7] [nM] |
| --- | --- | --- | --- | --- | --- | --- | --- |
| CCN(CC)CCNC(=O)c1c(C)[nH]c(/C=C2\C(=O)Nc3ccc(F)cc32)c1C [Sunitinib, reference compound] | > 20000 | > 20000 | 92.3 | 28.7 | 19.6 | 77 |  |
| CNC(=O)c1cc(Oc2ccc(NC(=O)Nc3ccc(Cl)c(C(F)(F)F)c3)cc2)ccn1 [Sorafenib] |  |  | 75.6 |  | 11.7 |  | 38 |
